Experimental data as given in the supplement of paper PMC9663587.

How the values were obtained:
[1] = compound: CN(C)C/C=C/C(=O)Nc1ccc(C(=O)N2CCC[C@@H](Nc3ncc(Cl)c(-c4c[nH]c5ccccc45)n3)C2)cc1 [THZ531]; test: GR value, 72 h; higher = faster growth (1 = untreated, <0 = killing);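 note: breast cancer and non-malignant breast epithelial lines, nine half-log doses, viable cells counted by Hoechst and LIVE/DEAD dye imaging versus time-zero plates and DMSO controls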
[2] = compound: CCN1CCN(Cc2ccc(Nc3ncc(F)c(-c4cc(F)c5nc(C)n(C(C)C)c5c4)n3)nc2)CC1; test: as above
[3] = compound: C=CC(=O)Nc1ccc(C(=O)Nc2[nH]nc3c2CN(C(=O)N[C@H](CN(C)C)c2ccccc2)C3(C)C)cc1 [YKL-5-124]; test: as above
[4] = compound: CN(C)C(=O)c1cc2cnc(Nc3ccc(N4CCNCC4)cn3)nc2n1C1CCCC1 [LEE011/Ribociclib]; test: as above
[5] = compound: CCc1cnn2c(NCc3ccc[n+]([O-])c3)cc(N3CCCC[C@H]3CCO)nc12; test: as above
[6] = compound: T1, CC(=O)c1c(C)c2cnc(Nc3ccc(N4CCN(CCOCCOCCOCCNC(=O)COc5cccc6c5C(=O)N(C5CCC(=O)NC5=O)C6=O)CC4)cn3)nc2n(C2CCCC2)c1=O [BSJ-03-123]; test: as above
[7] = compound: T2, CN1CC[C@H](c2c(O)cc(O)c3c(=O)cc(-c4ccccc4Cl)oc23)[C@H](O)C1 [Flavopiridol]; test: as above
[8] = compound: CN(C)C/C=C/C(=O)Nc1ccc(C(=O)Nc2cccc(Nc3ncc(Cl)c(-c4c[nH]c5ccccc45)n3)c2)cc1 [THZ1]; test: as above
[9] = compound: CCOc1cc2ncc(C#N)c(Nc3ccc(OCc4ccccn4)c(Cl)c3)c2cc1NC(=O)/C=C/CN(C)C [Neratinib/HKI272]
[10] = compound: CC(C)Nc1cc(-c2c[nH]c(C(=O)N[C@H](CO)c3cccc(Cl)c3)c2)c(Cl)cn1 [BVD523]
[11] = compound: CCC1=CN=CN=C1N2CCN(CC2)CC3=NC4=C(N3)C=C(C=C4)C(F)(F)F
[12] = compound: CC(=O)O[C@H]1C(=O)[C@@]2(C)[C@H]([C@H](OC(=O)c3ccccc3)[C@]3(O)C[C@H](OC(=O)[C@H](O)[C@@H](NC(=O)c4ccccc4)c4ccccc4)C(C)=C1C3(C)C)[C@]1(OC(C)=O)CO[C@@H]1C[C@@H]2O [Paclitaxel]
[13] = compound: NC1(C(=O)N[C@@H](CCO)c2ccc(Cl)cc2)CCN(c2nc[nH]c3nccc2-3)CC1 [AZD5363]
[14] = compound: T1, BSJ-03-123
[15] = compound: T2, Flavopiridol
[16] = compound: C1=CC2=C(C=CC(=C2)C=C3C(=O)NC(=NCC4=CC=CS4)S3)N=C1 [R0-3306]
[17] = compound: CO[C@@H](C)Cn1c(=O)n(C)c2cnc3ccc(-c4cncc(C(C)(C)O)c4)cc3c21
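Throughout, for GR50, 72 h: breast cancer and non-malignant breast epithelial cell lines, Deep Dye Drop or Dye Drop imaging, nine half-log doses, GR normalized to time-zero plates and DMSO-only controls.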

HCC1143 was tested, and the GR value ([1]; 0.0001 µM) was 0.974 GR, the GR value ([1]; 0.0003162 µM) was 0.976 GR and the GR value ([1]; 0.001 µM) was 1.03 GR. It also gave a GR value ([1]; 0.003162 µM) of 0.957 GR, a GR value ([1]; 0.01 µM) of 1.02 GR and a GR value ([1]; 0.03162 µM) of 0.937 GR. It also gave a GR value ([1]; 0.1 µM) of 0.689 GR, a GR value ([1]; 0.3162 µM) of -0.125 GR and a GR value ([1]; 1 µM) of -0.228 GR. For the same cell line, the GR value ([2]; 0.001 µM) was 0.881 GR, the GR value ([2]; 0.003162 µM) was 0.924 GR and the GR value ([2]; 0.01 µM) was 0.746 GR. The GR value ([2]; 0.03162 µM) was 0.604 GR, the GR value ([2]; 0.1 µM) was 0.406 GR and the GR value ([2]; 0.3162 µM) was 0.282 GR. It also gave a GR value ([2]; 1 µM) of 0.178 GR, a GR value ([2]; 3.162 µM) of 0.142 GR and a GR value ([2]; 10 µM) of -0.0908 GR. It also gave a GR value ([3]; 0.001 µM) of 0.423 GR, a GR value ([3]; 0.003162 µM) of 0.398 GR and a GR value ([3]; 0.01 µM) of 0.336 GR. It also gave a GR value ([3]; 0.03162 µM) of 0.241 GR, a GR value ([3]; 0.1 µM) of 0.223 GR and a GR value ([3]; 0.3162 µM) of 0.183 GR. For the same cell line, the GR value ([3]; 1 µM) was 0.142 GR, the GR value ([3]; 3.162 µM) was 0.0598 GR and the GR value ([3]; 10 µM) was -0.0734 GR. It also gave a GR value ([4]; 0.001 µM) of 0.856 GR, a GR value ([4]; 0.003162 µM) of 0.876 GR and a GR value ([4]; 0.01 µM) of 0.848 GR. It also gave a GR value ([4]; 0.03162 µM) of 0.74 GR, a GR value ([4]; 0.1 µM) of 0.753 GR and a GR value ([4]; 0.3162 µM) of 0.712 GR. For the same cell line, the GR value ([4]; 1 µM) was 0.72 GR, the GR value ([4]; 3.162 µM) was 0.551 GR and the GR value ([4]; 10 µM) was 0.311 GR. The GR value ([5]; 0.0001 µM) was 0.993 GR, the GR value ([5]; 0.0003162 µM) was 0.988 GR and the GR value ([5]; 0.001 µM) was 0.99 GR. The GR value ([5]; 0.003162 µM) was 1.04 GR, the GR value ([5]; 0.01 µM) was 0.95 GR and the GR value ([5]; 0.03162 µM) was -0.238 GR. For the same cell line, the GR value ([5]; 0.1 µM) was -0.231 GR, the GR value ([5]; 0.3162 µM) was -0.252 GR and the GR value ([5]; 1 µM) was -0.228 GR. The GR value ([6]; 0.001 µM) was 0.905 GR, the GR value ([6]; 0.003162 µM) was 0.89 GR and the GR value ([6]; 0.01 µM) was 0.906 GR. For the same cell line, the GR value ([6]; 0.03162 µM) was 0.858 GR, the GR value ([6]; 0.1 µM) was 0.861 GR and the GR value ([6]; 0.3162 µM) was 0.797 GR. It also gave a GR value ([6]; 1 µM) of 0.613 GR, a GR value ([6]; 3.162 µM) of 0.481 GR and a GR value ([6]; 10 µM) of 0.028 GR. The GR value ([7]; 0.0001 µM) was 1 GR, the GR value ([7]; 0.0003162 µM) was 1.04 GR and the GR value ([7]; 0.001 µM) was 0.952 GR. It also gave a GR value ([7]; 0.003162 µM) of 0.964 GR, a GR value ([7]; 0.01 µM) of 0.988 GR and a GR value ([7]; 0.03162 µM) of 0.933 GR. For the same cell line, the GR value ([7]; 0.1 µM) was 0.722 GR, the GR value ([7]; 0.3162 µM) was 0.175 GR and the GR value ([7]; 1 µM) was -0.31 GR. The GR value ([8]; 0.0001 µM) was 0.953 GR, the GR value ([8]; 0.0003162 µM) was 1.04 GR and the GR value ([8]; 0.001 µM) was 1 GR. For the same cell line, the GR value ([8]; 0.003162 µM) was 0.989 GR, the GR value ([8]; 0.01 µM) was 0.908 GR and the GR value ([8]; 0.03162 µM) was 0.303 GR. It also gave a GR value ([8]; 0.1 µM) of -0.271 GR, a GR value ([8]; 0.3162 µM) of -0.266 GR and a GR value ([8]; 1 µM) of -0.31 GR. For the same cell line, the “GR50, 72 h” value [9] was 0.672 µM, the “GR50, 72 h” value [10] was 1.74 µM and the “GR50, 72 h” value [11] was over 10 µM. The “GR50, 72 h” value [12] was 0.00207 µM, the “GR50, 72 h” value [13] was over 10 µM and the “GR50, 72 h” value [14] was 1.87 µM. For the same cell line, the “GR50, 72 h” value [15] was 0.17 µM, the “GR50, 72 h” value [16] was 1.66 µM and the “GR50, 72 h” value [17] was 0.286 µM.
